Experimental data taken from article PMC8102414 (Heliyon, 2021).
In brackets after ≈: the same amount, converted by molar mass.

How the values were obtained:
[1] = system: advanced glycation end products (AGEs); assay: Glycation inhibition assay; type: biochemical; conditions: Inactive at >100 μM
[2] = system: Enterococcus faecalis ATCC 29212; assay: Antimicrobial MIC, 2-fold serial dilution; conditions: for MIC (μg/mL) EF: Gram-positive, Enterococcus faecalis (ATCC 29212), Inactive at >128 μg/mL; for MIC: Enterococcus faecalis, ATCC29212, read-out: MIC (μg/mL) EF
[3] = system: Staphylococcus aureus ATCC 25923; assay: Antimicrobial MIC, 2-fold serial dilution; conditions: for MIC: Staphylococcus aureus, ATCC25923, read-out: MIC (μg/mL) SA
[4] = system: Shigella flexneri DMST 4423; assay: Antimicrobial MIC, 2-fold serial dilution; conditions: for MIC (μg/mL) SF: Gram-negative, Shigella flexneri (DMST 4423), Inactive at >128 μg/mL
[5] = system: Salmonella typhi DMST 22842; assay: microbe, parasite or virus in culture; type: cell-based; conditions: for MIC: Salmonella enterica, TYPHI, read-out: MIC (μg/mL) ST; for MIC (μg/mL) ST: Gram-negative, Salmonella typhi (DMST 22842), Inactive at >128 μg/mL
[6] = system: Salmonella typhimurium DMST 562; assay: Antimicrobial MIC, 2-fold serial dilution; conditions: for MIC (μg/mL) STR: Gram-negative, Salmonella typhimurium (DMST 562), Inactive at >128 μg/mL; for MIC: Salmonella enterica, TYPHIMURIUM, read-out: MIC (μg/mL) STR
[7] = system: Candida albicans ATCC 10231; assay: Antimicrobial MIC, 2-fold serial dilution; conditions: for MIC (μg/mL) CA: Fungi, Candida albicans (ATCC 10231), Inactive at >128 μg/mL; for MIC: Candida albicans, ATCC10231, read-out: MIC (μg/mL) CA
[8] = system: Pseudomonas aeruginosa ATCC 10145; assay: Antimicrobial MIC, 2-fold serial dilution; conditions: for MIC: Pseudomonas aeruginosa, ATCC10145, read-out: MIC (μg/mL) PA
[9] = system: Streptococcus pyogenes ATCC, 19615; assay: Antimicrobial MIC, 2-fold serial dilution; conditions: for MIC (μg/mL) SP: Gram-positive, Streptococcus pyogenes (ATCC, 19615), Inactive at >128 μg/mL; for MIC: Streptococcus pyogenes, read-out: MIC (μg/mL) SP
[10] = system: Escherichia coli TISTR 780; assay: Antimicrobial MIC, 2-fold serial dilution; conditions: for MIC: Escherichia coli, TISTR780, read-out: MIC (μg/mL) EC; for MIC (μg/mL) EC: Gram-negative, Escherichia coli (TISTR 780), Inactive at >128 μg/mL
RAW 264.7 cells = assay: Nitric oxide production inhibition assay; type: cell-based; conditions: LPS-stimulated NO production in RAW 264.7 cells; Inactive at >100 μM
[11] = system: methicillin resistant Staphylococcus aureus NPRC 001R; assay: Antimicrobial MIC, 2-fold serial dilution; conditions: for MIC (μg/mL) MRSA: Gram-positive, Methicillin Resistant Staphylococcus aureus (NPRC 001R), Inactive at >128 μg/mL
3T3-L1 adipocyte cells = assay: Glucose consumption assay; type: cell-based; conditions: induction of glucose consumption, 3T3-L1 adipocyte cells; Inactive at >100 μM
[12] = system: Micrococcus luteus DMST 15503; assay: Antimicrobial MIC, 2-fold serial dilution; conditions: for MIC (μg/mL) MT: Gram-positive, Micrococcus luteus (DMST 15503), Inactive at >128 μg/mL; for MIC: Micrococcus luteus, DMST15503, read-out: MIC (μg/mL) MT

SMILES | Glycation inhibition (IC50, μM) [1] | MIC (μg/mL) EF [2] | MIC [3] [µg/mL] | MIC (μg/mL) SF [4] | MIC [5] [µg/mL] | MIC (μg/mL) STR [6] | MIC (μg/mL) CA [7] | MIC [8] [µg/mL] | MIC (μg/mL) SP [9] | MIC [10] [µg/mL] | NO Inhibition (IC50, μM) (RAW 264.7 cells) | MIC (μg/mL) MRSA [11] | Glucose consumption (IC50, μM) (3T3-L1 adipocyte cells) | MIC (μg/mL) MT [12] | MIC [6] [µg/mL] | MIC [9] [µg/mL] | MIC (μg/mL) EC [10] | MIC [12] [µg/mL] | MIC (μg/mL) ST [5] | MIC [2] [µg/mL] | other results
COc1cc(O)cc2oc(-c3ccccc3)cc(=O)c12 [Compound 18, 5-methoxy-7-hydroxyflavone] | Inactive | Inactive | 128 (≈ 477 µM) | Inactive | 128 (≈ 477 µM) | Inactive | Inactive | 128 (≈ 477 µM) | Inactive | 128 (≈ 477 µM) | Inactive | Inactive | Inactive | Inactive |  |  |  |  |  |  | 
CC(C)=CCc1cc([C@@H]2CC(=O)c3c(O)cc(O)cc3O2)cc(CC=C(C)C)c1O [Compound 25, abyssinone V] | Inactive | Inactive | 128 (≈ 313 µM) |  | 128 (≈ 313 µM) |  | Inactive | 128 (≈ 313 µM) |  |  | Inactive | Inactive | Inactive |  | 128 (≈ 313 µM) | 128 (≈ 313 µM) | Inactive | 128 (≈ 313 µM) |  |  | MIC ([4]; Shigella flexneri, DMST4423, read-out: MIC (μg/mL) SF): 128 µg/mL (≈ 313 µM)
COc1ccc2c3c(oc2c1CC=C(C)C)-c1ccc(O)cc1OC3 [Compound 3, eryvarin D] | Inactive | Inactive |  | Inactive |  |  | Inactive | 128 (≈ 381 µM) | Inactive | 128 (≈ 381 µM) | Inactive | Inactive | Inactive | Inactive | 128 (≈ 381 µM) |  |  |  | Inactive |  | MIC (μg/mL) SA ([3]; Gram-positive, Staphylococcus aureus (ATCC 25923), Inactive at >128 μg/mL): Inactive
CN[C@H](CC(C)C)C(=O)N[C@H]1C(=O)N[C@@H](CC(N)=O)C(=O)N[C@H]2C(=O)N[C@H]3C(=O)N[C@H](C(=O)N[C@H](C(=O)O)c4cc(O)cc(O)c4-c4cc3ccc4O)[C@H](O)c3ccc(c(Cl)c3)Oc3cc2cc(c3O[C@@H]2O[C@H](CO)[C@@H](O)[C@H](O)[C@H]2O[C@H]2C[C@](C)(N)[C@H](O)[C@H](C)O2)Oc2ccc(cc2Cl)[C@H]1O [Vancomycin, vancomycin, reference compound] |  |  | 0.5 (≈ 0.345 µM) |  |  |  |  |  |  |  |  |  |  |  |  | 2 (≈ 1.38 µM) |  | 2 (≈ 1.38 µM) |  | 2 (≈ 1.38 µM) | MIC [7]: 4 µg/mL (≈ 2.76 µM); MIC ([11]; Staphylococcus aureus, MRSA, read-out: MIC (μg/mL) MRSA): 1 µg/mL (≈ 0.69 µM)
CC(C)=CCc1c(O)ccc2c1O[C@H]1c3ccc(O)cc3OC[C@@H]21 [Compound 11, phaseollidin] | Inactive |  |  | Inactive | 128 (≈ 395 µM) | Inactive |  | 128 (≈ 395 µM) |  |  | Inactive |  | Inactive |  |  |  | Inactive | 128 (≈ 395 µM) |  | 128 (≈ 395 µM) | MIC [7]: 128 µg/mL (≈ 395 µM)
CC(C)=CCc1cc(-c2coc3c(CC=C(C)C)c(O)ccc3c2=O)ccc1O [Compound 20, erysubin F] | Inactive |  |  | Inactive |  | Inactive |  |  | Inactive |  | Inactive | Inactive | Inactive | Inactive |  |  | Inactive |  | Inactive | 128 (≈ 328 µM) | MIC (μg/mL) PA ([8]; Gram-negative, Pseudomonas aeruginosa (ATCC 10145), Inactive at >128 μg/mL): Inactive
